From patent US20250152719A1, “FUSED IMIDE DERIVATIVE” (Chia Tai Tianqing Pharmaceutical Group Co., Ltd., priority 2021, published 2025)
Read-outs that look alike come from different tables or passages of the source.

Tests used:
[1] = molecular target: BTK (Homo sapiens (Human), UniProt Q06187); assay: BTK degradation in OCI-LY10 cells (Total-BTK HTRF kit); assay type: cell-based; conditions: 24 (or 6) h incubation; for DC50 / BTK degradation in OCI-LY10 cells Dmax: OCI-LY10 cells; for DC50: DC50 = concentration when degradation rate reaches 50%, read-out: OCI-LY10 cell BTK degradation DC50; for Dmax: OCI-Ly10, OCI-LY10 cells; for Dmax / BTK degradation in OCI-LY10 cells Dmax: maximum degradation rate
BTK, sequence (Q06187 whole entry): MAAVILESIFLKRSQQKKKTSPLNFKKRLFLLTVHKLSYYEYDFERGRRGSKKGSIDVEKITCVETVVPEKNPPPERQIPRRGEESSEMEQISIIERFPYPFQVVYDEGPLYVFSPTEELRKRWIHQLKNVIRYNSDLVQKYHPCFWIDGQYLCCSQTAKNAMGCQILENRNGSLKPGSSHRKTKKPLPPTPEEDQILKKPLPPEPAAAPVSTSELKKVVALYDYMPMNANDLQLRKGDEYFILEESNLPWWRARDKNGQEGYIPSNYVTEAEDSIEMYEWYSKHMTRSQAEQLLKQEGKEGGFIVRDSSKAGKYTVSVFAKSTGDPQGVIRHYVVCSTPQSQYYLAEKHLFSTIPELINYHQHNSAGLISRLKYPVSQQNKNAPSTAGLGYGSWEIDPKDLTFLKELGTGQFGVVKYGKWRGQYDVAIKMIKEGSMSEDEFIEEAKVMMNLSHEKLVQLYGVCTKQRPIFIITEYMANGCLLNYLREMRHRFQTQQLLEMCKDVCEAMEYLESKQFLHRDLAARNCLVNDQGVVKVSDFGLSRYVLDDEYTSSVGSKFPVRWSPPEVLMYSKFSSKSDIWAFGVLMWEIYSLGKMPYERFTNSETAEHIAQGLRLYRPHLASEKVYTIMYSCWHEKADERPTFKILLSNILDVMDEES
Protocol: The detection was carried out using the Total-BTK Kits (cisbio, 63ADK064PEH), and 4× Supplemented Lysis buffer was prepared using the Blocking reagent stock solution (100×) and Lysis buffer stock solution (4×). Premixed antibody solutions were prepared using the Detection buffer, Total-BTK d2 antibody, and Total-BTK Eu Cryptate antibody.
OCI-LY10 cells in a good growth state were collected and added to a centrifuge tube, adjusted to a cell density of 4.17×10^6 cells/mL, and seeded in a 384-well plate (12 μL/well). The cells were incubated overnight in a cell incubator. Compounds were added using a nanoliter pipettor such that the final concentrations of the compounds were 100 nM-0.098 nM; the addition was performed in duplicate, and meanwhile, a control was set. After another 24 (or 6) h of incubation in the cell incubator, the 4× Supplemented Lysis buffer was added at 4 μL/well to lyse the cells. After the cells were shaken for 40 min at room temperature, the Premixed antibody solutions were added at 4 μL/well, and the cells were left to stand overnight at room temperature. Fluorescence values of the cells were detected at 665 nm/620 nm using an Envision microplate reader, the four-parameter analysis was performed, the dose-response curves were fit, and DC50 (the concentration of the drug when the degradation rate reaches 50%) and Dmax (the maximum degradation rate) were calculated.

[2] = system: OCI-LY10 cells; assay: Inhibitory activity on OCI-LY10 cell proliferation (CCK-8); assay type: cell-based
Protocol: (§1) OCI-LY10 cells in a good growth state were collected and added to a centrifuge tube, adjusted to a cell density of 1×10^5 cells/mL, and seeded in a 96-well plate (100 μL/well). The cells were incubated overnight in a cell incubator. Compounds were added using a nanoliter pipettor such that the final concentrations of the compounds were 5000 nM-0.31 nM; the addition was performed in duplicate, and meanwhile, a control was set. After another 72 h of incubation in the cell incubator, 10 μL of CCK-8 (CK04, PP799) was added. After 2.5 h of incubation in the cell incubator, absorbance values were detected at 450 nm using an Envision microplate reader, the four-parameter analysis was performed, the dose-response curves were fit, and IC50 was calculated.

[3] = system: TMD8-BTK(C481S) cells; assay: Inhibitory activity on TMD8-BTK(C481S) cell proliferation (CCK-8); assay type: cell-based; conditions: 72 h incubation
Protocol: as §1, with “TMD8-BTK(C481S)” for “OCI-LY10”, “8×10^4” for “1×10^5”, “4” for “2.5”

[4] = Mouse pharmacokinetics; assay type: in vivo, ICR mice; conditions: for clearance / half-life / AUC / Cmax: ICR, mouse, plasma; for AUC: read-out: AUC; for Cmax: read-out: Cmax
Protocol: ICR mice weighing 18-22 g were randomized into groups of 9 after 3-5 days of acclimatization and then intragastrically given the test compound solution at a dose of 10 mg/kg. Plasma samples to be tested were prepared by taking blood from the orbit at time points of 15 min, 30 min, 1 h, 2 h, 3 h, 4 h, 6 h, 8 h, 10 h, and 24 h. 20 μL of each plasma sample to be detected and a standard curve sample were taken, and an acetonitrile solution containing an internal standard was added. […] Pharmacokinetic parameters were fitted using a non-compartmental model (see Table 5).

[5] = Homo sapiens, OCI-Ly10, 72 h incubation
[6] = po, 10 mg/kg, Mouse i.g. 10 mpk

Dmax [1] | IC50 [2, 5] | Compound | IC50 ([3]; 72 h) | IC50 [3] | also measured
99% | < 0.31 nM | CN1CCN([C@@H]2CCCN(c3cnc(C(N)=O)c(Nc4ccc(C5CCN(C[C@H]6CCN(c7ccc8c(C9CCC(=O)NC9=O)noc8c7)C6)CC5)cc4)n3)C2)C1=O (stereo partly drawn) [Compound 1] | 35 nM |  | DC50 [1]: < 0.098 nM
99% | < 0.31 nM | CN1CCN([C@@H]2CCCN(c3cnc(C(N)=O)c(Nc4ccc(C5CCN(C[C@H]6CCN(c7cc8onc(C9CCC(=O)NC9=O)c8cc7F)C6)CC5)cc4)n3)C2)C1=O (stereo partly drawn) [Compound 3] |  |  | DC50 [1]: < 0.098 nM
99% | < 0.31 nM | CN1CCN([C@@H]2CCCN(c3cnc(C(N)=O)c(Nc4ccc(C5CCN(C[C@H]6CCC(c7ccc8c(C9CCC(=O)NC9=O)noc8c7)C6)CC5)cc4)n3)C2)C1=O (stereo partly drawn) [Compound 6] | 27 nM |  | DC50 [1]: < 0.098 nM
99% | < 0.31 nM | CN1CCN([C@@H]2CCCN(c3cnc(C(N)=O)c(Nc4ccc(C5CCN(CC6CN(c7ccc8c(C9CCC(=O)NC9=O)noc8c7)C6)CC5)cc4)n3)C2)C1=O (stereo partly drawn) [Compound 9] | 1.2 nM |  | DC50 [1]: < 0.098 nM; clearance ([4]; iv, 1 mg/kg, Mouse i.v. 1 mpk): 5.52 mL/min/kg; half-life ([4]; iv, 1 mg/kg, Mouse i.v. 1 mpk): 1.5 h; AUC ([4]; iv, 1 mg/kg, Mouse i.v. 1 mpk): 2970 ng·h/mL; half-life [4, 6]: 2.6 h; AUC [4, 6]: 13700 ng·h/mL; Cmax [4, 6]: 1390 ng/mL; F ([4]; Mouse i.g. 10 mpk): 46.10%
99% | < 0.31 nM | CN1CCN([C@@H]2CCCN(c3cnc(C(N)=O)c(Nc4ccc(C5CCC6(CC5)CN(CC5CN(c7ccc8c(C9CCC(=O)NC9=O)noc8c7)C5)C6)cc4)n3)C2)C1=O (stereo partly drawn) [Compound 11] | 14 nM |  | DC50 [1]: < 0.098 nM
> 90% |  | CN1CCN([C@@H]2CCCN(c3cnc(C(N)=O)c(Nc4ccc(C5C[C@@H]6CN(CC7Cc8ccc9c(C%10CCC(=O)NC%10=O)noc9c8C7)C[C@@H]6C5)cc4)n3)C2)C1=O (stereo partly drawn) [Compound 48] | 5.7 nM |  | 
 |  | CN1CCN([C@@H]2CCCN(c3cnc(C(N)=O)c(Nc4ccc(C5C[C@@H]6CN(CC7Cc8ccc9c(C%10CCC(=O)NC%10=O)noc9c8C7)C[C@@H]6C5)cc4)n3)C2)C1=O (stereo partly drawn) [Compound 49] |  | 6.8 nM | BTK degradation in OCI-LY10 cells Dmax [1]: >90%
 |  | CN1CCN([C@@H]2CCCN(c3cnc(C(N)=O)c(Nc4ccc(C5CCC6(CC5)CCN(CC5Cc7ccc8c(C9CCC(=O)NC9=O)noc8c7C5)CC6)cc4)n3)C2)C1=O (stereo partly drawn) [Compound 51] |  | 4.7 nM | BTK degradation in OCI-LY10 cells Dmax [1]: >90%
 |  | CN1CCN([C@@H]2CCCN(c3cnc(C(N)=O)c(Nc4ccc(C5CCC6(CC5)CN(CC5Cc7ccc8c(C9CCC(=O)NC9=O)noc8c7C5)C6)cc4)n3)C2)C1=O (stereo partly drawn) [Compound 52] | 3.7 nM |  | BTK degradation in OCI-LY10 cells Dmax [1]: >90%
96% | < 0.31 nM | CN1CCN([C@@H]2CCCN(c3cnc(C(N)=O)c(Nc4ccc(C5CCC6(CC5)CN(CC5Cc7ccc8c(C9CCC(=O)NC9=O)noc8c7C5)C6)cc4)n3)C2)C1=O (stereo partly drawn) [Compound 53] |  | 2.8 nM | DC50 [1]: < 0.098 nM
> 90% |  | CN1CCN(C2CCCN(c3cnc(C(N)=O)c(Nc4ccc(C5CCC6(CC5)CN(C5Cc7ccc8c(C9CCC(=O)NC9=O)noc8c7C5)C6)cc4)n3)C2)C1=O (stereo not drawn) [Compound 54] | 9.7 nM |  | 
 |  | CN1CCN(C2CCCN(c3cnc(C(N)=O)c(Nc4ccc(C5CCC6(CC5)CN(C5Cc7ccc8c(C9CCC(=O)NC9=O)noc8c7C5)C6)cc4)n3)C2)C1=O (stereo not drawn) [Compound 55] |  | 6.1 nM | BTK degradation in OCI-LY10 cells Dmax [1]: >90%
> 90% |  | CN1CCN([C@@H]2CCCN(c3cnc(C(N)=O)c(Nc4ccc(C5CCC6(CC5)CC(N5Cc7ccc8c(C9CCC(=O)NC9=O)noc8c7C5)C6)cc4)n3)C2)C1=O (stereo partly drawn) [Compound 56] | 33 nM |  | 
> 90% |  | CN1CCN([C@@H]2CCCN(c3cnc(C(N)=O)c(Nc4ccc(C5CCC6(CC5)CC(N5CCc7c(ccc8c(C9CCC(=O)NC9=O)noc78)C5)C6)cc4)n3)C2)C1=O (stereo partly drawn) [Compound 58] | 21 nM |  | 
> 90% | < 0.31 nM | NC(=O)c1ncc(N2CCCCC2)nc1Nc1ccc(N2CCC(N3CCc4ccc5c(C6CCC(=O)NC6=O)noc5c4CC3)CC2)cc1 (stereo not drawn) [Compound 62] | 8.2 nM |  | 
> 90% |  | NC(=O)c1ncc(N2CCCCC2)nc1Nc1ccc(C2CCN(CC3Cc4ccc5c(C6CCC(=O)NC6=O)noc5c4C3)CC2)cc1 (stereo not drawn) [Compound 76] |  | 11 nM | 
> 90% | < 0.31 nM | CN1CCN([C@@H]2CCCN(c3cnc(C(N)=O)c(Nc4ccc5c(c4)CCC4(CCN(CC6Cc7ccc8c(C9CCC(=O)NC9=O)noc8c7C6)CC4)O5)n3)C2)C1=O (stereo partly drawn) [Compound 77] | 23 nM |  | 
 |  | CN1CCN([C@@H]2CCCN(c3cnc(C(N)=O)c(Nc4ccc(C5CC6CCCC(C5)N6C5Cc6ccc7c(C8CCC(=O)NC8=O)noc7c6C5)cc4)n3)C2)C1=O (stereo partly drawn) [Compound 80] |  | 11 nM | BTK degradation in OCI-LY10 cells Dmax [1]: >90%; IC50 ([2]; 72 h incubation): < 0.31 nM
 |  | CN1CCN([C@@H]2CCCN(c3cnc(C(N)=O)c(Nc4ccc(C5CC6CCCC(C5)N6CC5Cc6ccc7c(C8CCC(=O)NC8=O)noc7c6C5)cc4)n3)C2)C1=O (stereo partly drawn) [Compound 82] |  | 11 nM | BTK degradation in OCI-LY10 cells Dmax [1]: >90%; IC50 ([2]; 72 h incubation): < 0.31 nM
> 90% | < 0.31 nM | CN1CCN([C@@H]2CCCN(c3cnc(C(N)=O)c(Nc4ccc(C5CCN(C6Cc7ccc8c(C9CCC(=O)NC9=O)noc8c7C6)CC5)cc4)n3)C2)C1=O (stereo partly drawn) [Compound 87] |  | 11 nM | 
 |  | CN1CCN([C@@H]2CCCN(c3cnc(C(N)=O)c(Nc4ccc(C5CCN(C6Cc7ccc8c(C9CCC(=O)NC9=O)noc8c7C6)CC5)cc4)n3)C2)C1=O (stereo partly drawn) [Compound 88] |  | 29 nM | BTK degradation in OCI-LY10 cells Dmax [1]: >90%
> 90% | < 0.31 nM | CN1CCN([C@@H]2CCCN(c3cnc(C(N)=O)c(Nc4ccc(C5CCN(CC6Cc7ccc8c(C9CCC(=O)NC9=O)noc8c7C6)CC5)cc4)n3)C2)C1=O (stereo partly drawn) [Compound 89] |  | 20 nM | clearance ([4]; iv, 1 mg/kg, Mouse i.v. 1 mpk): 1.72 mL/min/kg; half-life ([4]; iv, 1 mg/kg, Mouse i.v. 1 mpk): 2.8 h; AUC ([4]; iv, 1 mg/kg, Mouse i.v. 1 mpk): 9700 ng·h/mL; half-life [4, 6]: 3 h; AUC [4, 6]: 23700 ng·h/mL; Cmax [4, 6]: 1880 ng/mL; F ([4]; Mouse i.g. 10 mpk): 24.5%
> 90% | < 0.31 nM | CN1CCN([C@@H]2CCCN(c3cnc(C(N)=O)c(Nc4ccc(C5CCN([C@H]6C[C@@H](n7ccc8c9c(C%10CCC(=O)NC%10=O)noc9ccc87)C6)CC5)cc4)n3)C2)C1=O (stereo partly drawn) [Compound 100] | 0.57 nM |  | 

Compound | Dmax [1] | IC50 [2, 5] | IC50 ([3]; 72 h) | IC50 [3] | also measured
CN1CCN([C@@H]2CCCN(c3cnc(C(N)=O)c(Nc4ccc(C5CC6CCCC(C5)N6C5Cc6ccc7c(C8CCC(=O)NC8=O)noc7c6C5)cc4)n3)C2)C1=O (stereo partly drawn) [Compound 79] | > 90% | < 0.31 nM | 12 nM |  | 
CN1CCN([C@@H]2CCCN(c3cnc(C(N)=O)c(Nc4ccc(C5CC6CCCC(C5)N6CC5Cc6ccc7c(C8CCC(=O)NC8=O)noc7c6C5)cc4)n3)C2)C1=O (stereo partly drawn) [Compound 81] | > 90% | < 0.31 nM | 11 nM |  | 
